Activity calls are given as the source filed them. How the calls were made is not given here.

The Ki is the dissociation constant of the complex between target and ligand, obtained from inhibition or displacement.

This experiment deals with Acetylcholine-binding protein (Lymnaea stagnalis) (UniProt P58154). Put plainly: acetylcholine-binding protein ligand affinity – biochemical, Lymnaea stagnalis, His-tagged, [125I]alpha-bungarotoxin (AID 743369). The settings on record: Purified AChBP, [125I]-alpha-bungarotoxin displacement, filtration.
Chain of Acetylcholine-binding protein (Lymnaea stagnalis) (P58154 whole entry, looked up): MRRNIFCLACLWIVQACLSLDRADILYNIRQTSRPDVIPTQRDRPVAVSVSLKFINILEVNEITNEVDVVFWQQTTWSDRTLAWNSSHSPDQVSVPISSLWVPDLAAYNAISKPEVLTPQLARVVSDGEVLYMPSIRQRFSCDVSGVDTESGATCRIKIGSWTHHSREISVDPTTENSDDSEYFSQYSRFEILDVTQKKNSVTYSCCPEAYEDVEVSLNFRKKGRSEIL
As for `CC/C=C/[C@@H]1CC[C@]2(C[C@H]3CC[C@H]4[C@@H](C(=O)OC(CC)CCCCCCCCCCCCC[C@@H]5O[C@](O)(CCN)[C@H](O)N(CCCN)C5=O)[C@@]5(CCC[C@H](C)O5)NC(=[N+]34)N2)O1` (stereo partly specified), the inhibitory constant (Ki) is 2500 nM. Then `NC1=N/C(=C2/CCNC(=O)c3[nH]ccc32)C(=O)N1`, with “inactive”; and `C[C@@H](N)[C@H](O)CCCCCCCC(=O)CCCCCCCCCCCCCC[C@@H](O[C@@H]1O[C@H](CO)[C@H](O)[C@H](O)[C@H]1O)[C@@H](C)N`, with 28000 nM. The value for `COc1cc2c3c(ccnc3c1OC)NC=C2` was 3000 nM; that for `COn1c(Br)c2c3c(cccc31)[C@H]1C[C@@H](C)CN(C)[C@@H]1C2` was 830 nM. The value for `COc1cc(CCN)c2c(c1OC)SSSSS2` was 790 nM.

The values are drawn from PubChem BioAssay AID743369.
